Source: US12612388B2, “Receptor-interacting protein 1 inhibitors including piperazine heterocyclic amide ureas” (SIRONAX LTD., priority 2020, dated 2026)

Each compound was assayed on HT-29 cells (assay: Cellular RIP1 inhibitory activity: necroptosis of HT-29 cells induced by TNF-α/SMAC mimetic/zVAD-FMK, CellTiter-Glo viability). Conditions: Homo sapiens, HT-29, 20 h, read-out: EC50 (Cell activity; Necrosis or Necroptosis Inhibitory Activity).
Type: cell-based
Experimental: In Table 2, activity is provided as follows: +++=0.1 nM≤EC50<100 nM; ++=100 nM≤EC50K<1000 nM; +=1000 nM≤EC50K<10000 nM.
Compounds 1-67 (denoted as Compound Nos. 1 through 67 in Table 1) of the disclosure were tested for binding and cellular RIP1 inhibitory activity following the experimental procedures described below.
Cell line: HT-29 (ATCC® HTB-38™)
Culture medium: McCOY's 5A, Gibco, Cat No. 16600-082
DMSO: Sigma, Cat No. 67-68-5, 1 L
Assay plate: Corning #3903
Compound dilution plate: Corning #3357
Inducers: TNFα, GenScript, Cat No. Z01001-50,
SmacM, Cat. No., HY-15989, MedChemExpress (MCE)
Z_VAD FMK, TargetMol, T6013
Cell Titer-Glo® Luminescent Cell Viability Assay Kit: Promega, Cat No. G7573
1. HT-29 cells were checked every day to make sure that they were healthy and growing as expected. They were subjected to sub-culturing when they were approximately 80% confluent.
2. The culture medium, McCOY's 5A medium (Gibco, Cat No. 16600-082) with 10% fetal bovine serum or FBS (Gibco, Cat No. 10099-141C), was pre-warmed in a 37° C. water bath for at least 30 min.
3. When the cells had reached a desired level of confluency of 80% in a T75 flask, the medium was aspirated, and the cells were washed with warm phosphate buffered saline or PBS two times.
4. 2-3 ml fresh warm trypsin (Gibco, Cat No. 25200-056) solution was added to the washed cells. The flask with the cells was transferred to a 37° C. incubator.
5. After 5 minutes, the side of the flask was tapped, and the flask was examined under a microscope for detachment of the cells to the flask. If necessary, the cells were kept in the incubator for an additional 5-10 minutes, with occasional tapping, until lifting was complete.
6. The trypsin reaction was neutralized by transferring 6-9 ml cell culture medium to sterile 15 ml conical tubes, and by centrifuging the cell culture at 300×g for 7 minutes to pellet the cells (supernatant decanted).
7. The cells were resuspended in fresh cell culture medium and the cell counting was performed using a hemocytometer.
8. 100 μl of the resuspended cell culture medium containing ˜5,000 cells were transferred into each well of the sterile 96-well cell culture plate (Corning 3903) and cultured overnight at 37° C. with 5% CO2.
Compound Titration and Treatment
1. All test compounds were dissolved in DMSO (Dimethyl sulfoxide) to create a 20 mM stock.
2. 3 μl of each compound 20 mM stock was mixed with 27 μl DMSO, and the compound solution was further diluted at a titration ratio of 1:3 (20 μl compound solution+40 μl DMSO) till the 10 points end.
3. All culture medium was removed from assay plates filled with HT-29 cell cultures. The cells were then washed with 1 PBS, and resuspended in fresh, FBS-free McCOY's 5A medium containing a cocktail of TNF-α (10 ng/ml), a SMAC mimetic compound (6 μM) and Z-VAD-fluoromethylketone or zVAD-FMK (10 μM) to stimulate the HT-29 cells to increase RIP1 kinase levels and necroptosis.
4. 0.5 μL of the diluted compound solution was added to the corresponding 96-well assay plates.
5. The assay plates were incubated for 20 hours at 37° C. with 5% CO2.
1. The CellTiter-Glo® Luminescent Cell Viability Assay was employed to detect the ATP levels of viable HT-29 cells.
2. The CellTiter-Glo® buffer and the lyophilized substrate were equilibrated to room temperature prior to use.
3. The CellTiter-Glo® substrate was resuspended with CellTiter-Glo® buffer, then mixed by gently vortexing to obtain a homogeneous solution.
4. 20 μl the enzyme/substrate mixture was transferred by multi-channel pipetting into 96-well assay plates.
5. The assay plates were placed on an orbital shaker and the contents were shaken for 3 minutes to induce cell lysis.
6. The assay plates were incubated at room temperature for 10 minutes to stabilize the luminescent signal.
7. The luminescence signals were read and recorded with EnVision.
8. The geometric mean EC50 values were calculated from 10 points response dose with duplicates. […]

Row | Structure (SMILES) | EC50 [nM]
1 | O=C(c1nc(N2CCN(C(=O)N3N=CC[C@H]3c3cc(F)cc(F)c3)CC2)ncc1F)N1CCC1 [Compound 7, (S)-azetidin-1-yl(2-(4-(5-(3,5-difluorophenyl)-4,5-dihydro-1H-pyrazole-1-carbonyl)piperazin-1-yl)-5-fluoropyrimidin-4-yl)methanone] | 0.1 to 100

Same assay, conditions: Homo sapiens; HT-29 cells; TNF-α 10 ng/ml, SMAC mimetic 6 μM, zVAD-FMK 10 μM; 20 hours; geometric mean, 10 points, duplicates; read-out: EC50 (Cell activity; Necrosis or Necroptosis Inhibitory Activity)

Row | Structure (SMILES) | EC50 [nM]
2 | COC1CN(C(=O)c2nc(N3CCN(C(=O)N4N=CC[C@H]4c4cncc(Cl)c4)CC3)ncc2Cl)C1 (stereo in doubt) [Compound 65, (5-chloro-2-(4-(5-(5-chloropyridin-3-yl)-4,5-dihydro-1H-pyrazole-1-carbonyl)piperazin-1-yl)pyrimidin-4-yl)(3-methoxyazetidin-1-yl)methanone] | 0.1 to 100
3 | O=C(O)c1nc(N2CCN(C(=O)N3N=CC[C@H]3c3cc(F)cc(F)c3)CC2)ncc1F [Compound 1, (S)-2-(4-(5-(3,5-difluorophenyl)-4,5-dihydro-1H-pyrazole-1-carbonyl)piperazin-1-yl)-5-fluoropyrimidine-4-carboxylic acid] | 1000 to 10000
4 | O=C(NO)c1nc(N2CCN(C(=O)N3N=CC[C@H]3c3cc(F)cc(F)c3)CC2)ncc1F [Compound 2, (S)-2-(4-(5-(3,5-difluorophenyl)-4,5-dihydro-1H-pyrazole-1-carbonyl)piperazin-1-yl)-5-fluoro-N-hydroxypyrimidine-4-carboxamide] | 0.1 to 100
5 | CONC(=O)c1nc(N2CCN(C(=O)N3N=CC[C@H]3c3cc(F)cc(F)c3)CC2)ncc1F [Compound 3, (S)-2-(4-(5-(3,5-difluorophenyl)-4,5-dihydro-1H-pyrazole-1-carbonyl)piperazin-1-yl)-5-fluoro-N-methoxypyrimidine-4-carboxamide] | 100 to 1000
6 | CNC(=O)c1nc(N2CCN(C(=O)N3N=CC[C@H]3c3cc(F)cc(F)c3)CC2)ncc1F [Compound 4] | 0.1 to 100
7 | CN(C)C(=O)c1nc(N2CCN(C(=O)N3N=CC[C@H]3c3cc(F)cc(F)c3)CC2)ncc1F [Compound 5, 2-(4-(5-(3,5-difluorophenyl)-4,5-dihydro-1H-pyrazole-1-carbonyl)piperazin-1-yl)-5-fluoro-N,N-dimethylpyrimidine-4-carboxamide] | 0.1 to 100
8 | CCN(C)C(=O)c1nc(N2CCN(C(=O)N3N=CC[C@H]3c3cc(F)cc(F)c3)CC2)ncc1F [Compound 6, (S)-2-(4-(5-(3,5-difluorophenyl)-4,5-dihydro-1H-pyrazole-1-carbonyl)piperazin-1-yl)-N-ethyl-5-fluoro-N-methylpyrimidine-4-carboxamide] | 0.1 to 100
9 | O=C(c1nc(N2CCN(C(=O)N3N=CC[C@H]3c3cc(F)cc(F)c3)CC2)ncc1F)N1CCCC1 [Compound 8, (S)-(5-(3,5-difluorophenyl)-4,5-dihydro-1H-pyrazol-1-yl)(4-(5-fluoro-4-(pyrrolidine-1-carbonyl)pyrimidin-2-yl)piperazin-1-yl)methanone] | 0.1 to 100
10 | CN(C(=O)c1nc(N2CCN(C(=O)N3N=CC[C@H]3c3cc(F)cc(F)c3)CC2)ncc1F)C1CC1 [Compound 9, (S)—N-cyclopropyl-2-(4-(5-(3,5-difluorophenyl)-4,5-dihydro-1H-pyrazole-1-carbonyl)piperazin-1-yl)-5-fluoro-N-methylpyrimidine-4-carboxamide] | 0.1 to 100
11 | O=C(c1nc(N2CCN(C(=O)N3N=CC[C@H]3c3cc(F)cc(F)c3)CC2)ncc1F)N1CC(CN2CCCC2)C1 [Compound 10, (5-(3,5-difluorophenyl)-4,5-dihydro-1H-pyrazol-1-yl)(4-(5-fluoro-4-(3-(pyrrolidin-1-ylmethyl)azetidine-1-carbonyl)pyrimidin-2-yl)piperazin-1-yl)methanone] | 0.1 to 100
12 | CCN(O)C(=O)c1nc(N2CCN(C(=O)N3N=CC[C@H]3c3cc(F)cc(F)c3)CC2)ncc1F [Compound 11, (S)-2-(4-(5-(3,5-difluorophenyl)-4,5-dihydro-1H-pyrazole-1-carbonyl)piperazin-1-yl)-N-ethyl-5-fluoro-N-hydroxypyrimidine-4-carboxamide] | 0.1 to 100
13 | O=C(c1nc(N2CCN(C(=O)N3N=CC[C@H]3c3cc(F)cc(F)c3)CC2)ncc1F)N1CC(F)(F)C1 [Compound 12, (S)-(3,3-difluoroazetidin-1-yl)(2-(4-(5-(3,5-difluorophenyl)-4,5-dihydro-1H-pyrazole-1-carbonyl)piperazin-1-yl)-5-fluoropyrimidin-4-yl)methanone] | 0.1 to 100
14 | O=C(c1nc(N2CCN(C(=O)N3N=CC[C@H]3c3cc(F)cc(F)c3)CC2)ncc1F)N1CC(O)C1 [Compound 13, (5-(3,5-difluorophenyl)-4,5-dihydro-1H-pyrazol-1-yl)(4-(5-fluoro-4-(3-hydroxyazetidine-1-carbonyl)pyrimidin-2-yl)piperazin-1-yl)methanone] | 0.1 to 100
15 | O=C(c1nc(N2CCN(C(=O)N3N=CC[C@H]3c3cc(F)cc(F)c3)CC2)ncc1F)N1CC2(COC2)C1 [Compound 14, (5-(3,5-difluorophenyl)-4,5-dihydro-1H-pyrazol-1-yl)(4-(5-fluoro-4-(2-oxa-6-azaspiro[3.3]heptane-6-carbonyl)pyrimidin-2-yl)piperazin-1-yl)methanone] | 0.1 to 100
16 | N#C[C@H]1CCN(C(=O)c2nc(N3CCN(C(=O)N4N=CC[C@H]4c4cc(F)cc(F)c4)CC3)ncc2F)C1 [Compound 15, (3S)-1-(2-(4-(5-(3,5-difluorophenyl)-4,5-dihydro-1H-pyrazole-1-carbonyl)piperazin-1-yl)-5-fluoropyrimidine-4-carbonyl)pyrrolidine-3-carbonitrile] | 0.1 to 100
17 | N#C[C@@H]1CCN(C(=O)c2nc(N3CCN(C(=O)N4N=CC[C@H]4c4cc(F)cc(F)c4)CC3)ncc2F)C1 [Compound 16, (3R)-1-(2-(4-(5-(3,5-difluorophenyl)-4,5-dihydro-1H-pyrazole-1-carbonyl)piperazin-1-yl)-5-fluoropyrimidine-4-carbonyl)pyrrolidine-3-carbonitrile] | 0.1 to 100
18 | O=C(c1nc(N2CCN(C(=O)N3N=CC[C@H]3c3cc(F)cc(F)c3)CC2)ncc1F)N1CCCCC1 [Compound 17, (5-(3,5-difluorophenyl)-4,5-dihydro-1H-pyrazol-1-yl)(4-(5-fluoro-4-(piperidine-1-carbonyl)pyrimidin-2-yl)piperazin-1-yl)methanone] | 0.1 to 100
19 | O=C(c1nc(N2CCN(C(=O)N3N=CC[C@H]3c3cc(F)cc(F)c3)CC2)ncc1F)N1CCOCC1 [Compound 18, (5-(3,5-difluorophenyl)-4,5-dihydro-1H-pyrazol-1-yl)(4-(5-fluoro-4-(morpholine-4-carbonyl)pyrimidin-2-yl)piperazin-1-yl)methanone] | 0.1 to 100
20 | CN1CCN(C(=O)c2nc(N3CCN(C(=O)N4N=CC[C@H]4c4cc(F)cc(F)c4)CC3)ncc2F)CC1 [Compound 19, (5-(3,5-difluorophenyl)-4,5-dihydro-1H-pyrazol-1-yl)(4-(5-fluoro-4-(4-methylpiperazine-1-carbonyl)pyrimidin-2-yl)piperazin-1-yl)methanone] | 0.1 to 100
21 | CN(O)C(=O)c1nc(N2CCN(C(=O)N3N=CC[C@H]3c3cc(F)cc(F)c3)CC2)ncc1F [Compound 20, (S)-2-(4-(5-(3,5-difluorophenyl)-4,5-dihydro-1H-pyrazole-1-carbonyl)piperazin-1-yl)-5-fluoro-N-hydroxy-N-methylpyrimidine-4-carboxamide] | 0.1 to 100
